These results are taken from patent publication US20250145633A1, “SUBSTITUTED FURANOPYRIMIDINE COMPOUNDS AS PDE1 INHIBITORS” (Dart NeuroScience, LLC, priority 2017, published 2025).

The target in one test is human PDE1B enzyme (Homo sapiens (Human), UniProt Q01064). Nature of the test: IMAP TR-FRET PDE1B enzymatic assay. The format is biochemical. The following applies: negative log of half-maximal molar inhibitory concentration; 200 nM FAM-cAMP; values given as bins. The essentials: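 Full-length GST-tagged human PDE1B (250 pg/well) in IMAP BSA buffer with 10 U/ml calmodulin and 2.5 mM CaCl2; compound pre-incubated 5 min at room temperature, then 200 nM (final) FAM-cAMP for 30 min. IMAP binding reagent/Tb added, 1 h; TR-FRET 520/490 ratio read. IC50 from sigmoidal dose-response fit.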
Turning to `COc1ccc(C(C)NC(=O)c2c(C)oc3ncnc(NC4(C)CC4)c23)cc1C` (centres unmarked) [Example 502, N-[1-(4-Methoxy-3-methylphenyl)ethyl]-6-methyl-4-[(1-methylcyclopropyl)amino]furo[2,3-d]pyrimidine-5-carboxamide], the “PDE1b (pIC50)” value was above 8.
Regarding `Cc1oc2ncnc(NC3(C)CC3)c2c1C(=O)N1CCC(c2cccc(F)n2)C1` (centres unmarked) [Example 532, 5-[3-(6-Fluoropyridin-2-yl)pyrrolidine-1-carbonyl]-6-methyl-N-(1-methylcyclopropyl)furo[2,3-d]pyrimidin-4-amine], the “PDE1b (pIC50)” value is on record as above 8.
For `Cc1oc2ncnc(NC3(C)CC3)c2c1C(=O)NCc1cc(C#N)ccc1F` [Example 533, N-[(5-Cyano-2-fluorophenyl)methyl]-6-methyl-4-[(1-methylcyclopropyl)amino]furo[2,3-d]pyrimidine-5-carboxamide], the “PDE1b (pIC50)” value was above 8.
Consider `Cc1oc2ncnc(NC3(C)CC3)c2c1C(=O)N1CCNC(c2ccc(F)cc2)C1` (centres unmarked) [Example 536, 5-[3-(4-Fluorophenyl)piperazine-1-carbonyl]-6-methyl-N-(1-methylcyclopropyl)furo[2,3-d]pyrimidin-4-amine], for which the “PDE1b (pIC50)” value was above 8.
Turning to `COc1ccccc1OCCNC(=O)c1c(C)oc2ncnc(NC3(C)CC3)c12` [Example 557, N-[2-(2-Methoxyphenoxy)ethyl]-6-methyl-4-[(1-methylcyclopropyl)amino]furo[2,3-d]pyrimidine-5-carboxamide], the “PDE1b (pIC50)” value is recorded as above 8.
Regarding `Cc1oc2ncnc(NC3(C)CC3)c2c1C(=O)NCCOc1ccccc1F` [Example 559, N-[2-(2-Fluorophenoxy)ethyl]-6-methyl-4-[(1-methylcyclopropyl)amino]furo[2,3-d]pyrimidine-5-carboxamide], the “PDE1b (pIC50)” value is on record as above 8.

The test is the same for the next values; noted with them: negative log of half-maximal molar inhibitory concentration; 200 nM FAM-cAMP; values given as bins; read-out: PDE1b (pIC50) (converted).
With `CCN(Cc1ccc(OC)cc1)C(=O)c1c(C)oc2ncnc(NC3(C)CC3)c12` [Example 489, N-ethyl-N-[(4-Methoxyphenyl)methyl]-6-methyl-4-[(1-methylcyclopropyl)amino]furo[2,3-d]pyrimidine-5-carboxamide], the IC50 is 10 to 100 nM.
Consider `COc1cc(CNC(=O)c2c(C)oc3ncnc(NC4(C)CC4)c23)cc(OC)c1` [Example 495, N-[(3,5-Dimethoxyphenyl)methyl]-6-methyl-4-[(1-methylcyclopropyl)amino]furo[2,3-d]pyrimidine-5-carboxamide], for which the IC50 is 10 to 100 nM.
As to `COc1c(C)cnc(CN(C)C(=O)c2c(C)oc3ncnc(NC4(C)CC4)c23)c1C` [Example 498, N-[(4-Methoxy-3,5-dimethylpyridin-2-yl)methyl]-N,6-dimethyl-4-[(1-methylcyclopropyl)amino]furo[2,3-d]pyrimidine-5-carboxamide], the IC50 is 10 to 100 nM.
With `Cc1oc2ncnc(NC3(C)CC3)c2c1C(=O)N1C[C@H]2CC[C@@H](C1)O2` [Example 499, 6-Methyl-N-(1-methylcyclopropyl)-5-[(1R,5S)-8-oxa-3-azabicyclo[3.2.1]octane-3-carbonyl]furo[2,3-d]pyrimidin-4-amine], the IC50 is 100 to 1000 nM.
On the same count and under the same terms, with `C=CCN(Cc1ccc(OC)cc1)C(=O)c1c(C)oc2ncnc(NC3(C)CC3)c12` [Example 508, N-[(4-Methoxyphenyl)methyl]-6-methyl-4-[(1-methylcyclopropyl)amino]-N-(prop-2-en-1-yl)furo[2,3-d]pyrimidine-5-carboxamide] the figure was 10 to 100 nM; with `CCOc1ccc(CNC(=O)c2c(C)oc3ncnc(NC4(C)CC4)c23)cc1OC` [Example 509, N-[(4-Ethoxy-3-methoxyphenyl)methyl]-6-methyl-4-[(1-methylcyclopropyl)amino]furo[2,3-d]pyrimidine-5-carboxamide], 10 to 100 nM.
In the case of `COc1ccc(C(C)N(C)C(=O)c2c(C)oc3ncnc(NC4(C)CC4)c23)cc1F` (centres unmarked) [Example 510, N-[1-(3-Fluoro-4-methoxyphenyl)ethyl]-N,6-dimethyl-4-[(1-methylcyclopropyl)amino]furo[2,3-d]pyrimidine-5-carboxamide], the IC50 was 10 to 100 nM.
For the compound `Cc1oc2ncnc(NC3(C)CC3)c2c1C(=O)NC(CO)c1ccc(F)cc1` (centres unmarked) [Example 513, N-[1-(4-Fluorophenyl)-2-hydroxyethyl]-6-methyl-4-[(1-methylcyclopropyl)amino]furo[2,3-d]pyrimidine-5-carboxamide], the IC50 was 10 to 100 nM.
Take `C#CC(C)(C)NC(=O)c1c(C)oc2ncnc(NC3(C)CC3)c12` [Example 520, 6-Methyl-N-(2-methylbut-3-yn-2-yl)-4-[(1-methylcyclopropyl)amino]furo[2,3-d]pyrimidine-5-carboxamide]: the IC50 was 10 to 100 nM.
Take `Cc1oc2ncnc(NC3(C)CC3)c2c1C(=O)N1CCN(c2ccc(F)cc2S(C)(=O)=O)CC1` [Example 521]: the IC50 was 10 to 100 nM.
Turning to `Cc1oc2ncnc(NC3(C)CC3)c2c1C(=O)N1CCN(c2ccc(S(C)(=O)=O)cc2F)CC1C` (centres unmarked) [Example 522, 5-[4-(2-Fluoro-4-methanesulfonylphenyl)-2-methylpiperazine-1-carbonyl]-6-methyl-N-(1-methylcyclopropyl)furo[2,3-d]pyrimidin-4-amine], the IC50 was 10 to 100 nM.
Take `COc1ccc(CNC(=O)c2c(C)oc3ncnc(NC4(C)CC4)c23)c(C)c1` [Example 524, N-[(4-Methoxy-2-methylphenyl)methyl]-6-methyl-4-[(1-methylcyclopropyl)amino]furo[2,3-d]pyrimidine-5-carboxamide]: the IC50 is 10 to 100 nM.
Regarding `COc1cc(F)ccc1CNC(=O)c1c(C)oc2ncnc(NC3(C)CC3)c12` [Example 525, N-[(4-Fluoro-2-methoxyphenyl)methyl]-6-methyl-4-[(1-methylcyclopropyl)amino]furo[2,3-d]pyrimidine-5-carboxamide], the IC50 was 10 to 100 nM.
As to `COc1ccccc1CN(C)C(=O)c1c(C)oc2ncnc(NC3(C)CC3)c12` [Example 528, N-[(2-Methoxyphenyl)methyl]-N,6-dimethyl-4-[(1-methylcyclopropyl)amino]furo[2,3-d]pyrimidine-5-carboxamide], the IC50 is 10 to 100 nM.
In the case of `Cc1oc2ncnc(NC3(C)CC3)c2c1C(=O)N1CCC(c2ncccc2F)C1` (centres unmarked) [Example 529, 5-[3-(3-Fluoropyridin-2-yl)pyrrolidine-1-carbonyl]-6-methyl-N-(1-methylcyclopropyl)furo[2,3-d]pyrimidin-4-amine], the IC50 was 10 to 100 nM.
As to `COc1ccc(C2CCN(C(=O)c3c(C)oc4ncnc(NC5(C)CC5)c34)CC2)nc1F` [Example 530, 5-[4-(6-Fluoro-5-methoxypyridin-2-yl)piperidine-1-carbonyl]-6-methyl-N-(1-methylcyclopropyl)furo[2,3-d]pyrimidin-4-amine], the IC50 is 10 to 100 nM.
`Cc1oc2ncnc(NC3(C)CC3)c2c1C(=O)NCc1ccc(Cl)cc1F` [Example 534, N-[(4-Chloro-2-fluorophenyl)methyl]-6-methyl-4-[(1-methylcyclopropyl)amino]furo[2,3-d]pyrimidine-5-carboxamide]: the IC50 was 10 to 100 nM.
In the case of `COc1ccc(CCNC(=O)c2c(C)oc3ncnc(NC4(C)CC4)c23)cc1OC` [Example 545, N-[2-(3,4-Dimethoxyphenyl)ethyl]-6-methyl-4-[(1-methylcyclopropyl)amino]furo[2,3-d]pyrimidine-5-carboxamide], the IC50 was 10 to 100 nM.
Take `COc1cccc(F)c1CNC(=O)c1c(C)oc2ncnc(NC3(C)CC3)c12` [Example 547, N-[(2-Fluoro-6-methoxyphenyl)methyl]-6-methyl-4-[(1-methylcyclopropyl)amino]furo[2,3-d]pyrimidine-5-carboxamide]: the IC50 was 10 to 100 nM.
In the case of `COc1ccc(CNC(=O)c2c(C)oc3ncnc(NC4(C)CC4)c23)c(Cl)c1` [Example 551, N-[(2-Chloro-4-methoxyphenyl)methyl]-6-methyl-4-[(1-methylcyclopropyl)amino]furo[2,3-d]pyrimidine-5-carboxamide], the IC50 is 10 to 100 nM.
As for `CCOc1cccc(F)c1CNC(=O)c1c(C)oc2ncnc(NC3(C)CC3)c12` [Example 552, N-[(2-Ethoxy-6-fluorophenyl)methyl]-6-methyl-4-[(1-methylcyclopropyl)amino]furo[2,3-d]pyrimidine-5-carboxamide], the IC50 is 10 to 100 nM.
For `COc1ccccc1OCCN(C)C(=O)c1c(C)oc2ncnc(NC3(C)CC3)c12` [Example 558, N-[2-(2-Methoxyphenoxy)ethyl]-N,6-dimethyl-4-[(1-methylcyclopropyl)amino]furo[2,3-d]pyrimidine-5-carboxamide], the IC50 was 10 to 100 nM.
On to `Cc1oc2ncnc(NC3(C)CC3)c2c1C(=O)NCCCc1nc2cc(F)ccc2[nH]1` [Example 568, N-[3-(5-Fluoro-1H-1,3-benzodiazol-2-yl)propyl]-6-methyl-4-[(1-methylcyclopropyl)amino]furo[2,3-d]pyrimidine-5-carboxamide], for which the IC50 is 10 to 100 nM.
`Cc1oc2ncnc(NC3(C)CC3)c2c1C(=O)N(C)Cc1cc2cc(F)ccc2[nH]1` [Example 569, N-[(5-Fluoro-1H-indol-2-yl)methyl]-N,6-dimethyl-4-[(1-methylcyclopropyl)amino]furo[2,3-d]pyrimidine-5-carboxamide]: the IC50 is 10 to 100 nM.
In the case of `COc1ccc2[nH]c(CNC(=O)c3c(C)oc4ncnc(NC5(C)CC5)c34)cc2c1` [Example 570, N-[(5-Methoxy-1H-indol-2-yl)methyl]-6-methyl-4-[(1-methylcyclopropyl)amino]furo[2,3-d]pyrimidine-5-carboxamide], the IC50 was 10 to 100 nM.
Take `Cc1oc2ncnc(NC3(C)CC3)c2c1C(=O)NCc1cnn(-c2ccc(F)cc2)c1` [Example 571, N-{[1-(4-Fluorophenyl)-1H-pyrazol-4-yl]methyl}-6-methyl-4-[(1-methylcyclopropyl)amino]furo[2,3-d]pyrimidine-5-carboxamide]: the IC50 is 10 to 100 nM.
